Test results reported in patent US20030092684A1, “Compositions and methods for treating hemorrhagic virus infections and other disorders” (priority 1999, published 2003).
Several values for one entry are separate records, joined by “and”; a condition that tells them apart may be missing. Equal values may be shown once. Read-outs that look alike come from different tables or passages of the source.

Assays:
[1] = tested on: Marburg virus strain Popp; design: species or system guinea-pigs; conditions: guinea pig, in vivo; monohydrate
[2] = tested on: Lassa virus strain Josiah; design: species or system BALB/c mice; conditions: mouse, in vivo
[3] = tested on: IL-1, IL-1Ra, TNF and soluble TNF receptor (sTNFR); design: species or system BALB/c mice; conditions: mouse, in vivo
[4] = tested on: IL-1, TNF, IL-1 RA and sTNFr; test: Serum IL-1, TNF, IL-1RA and sTNFr after Doxycycline injection in uninfected mice (Group 1); format: in vivo, BALB/c mice; conditions: 58 mg/kg i.m. every day for 4 days
Dengue virus, type 2 = tested on: Dengue virus, type 2; design: species or system BALB/c mice; conditions: mouse, in vivo
[5] = tested on: IL-1, TNF, IL-1RA and sTNFr; test: Serum IL-1, TNF, IL-1RA and sTNFr during treatment of Dengue virus infection (Example 2); format: in vivo, BALB/c mice
[6] = 58 mg/kg i.m. during 17 day period without virus injection
[7] = 7 day period without viral infection
[8] = day 0, 58 mg/kg i.m. daily day 2-5 after infection (Group 3)
[9] = day 0, 58 mg/kg i.m. daily day 3-5 after infection (Group 4)
[10] = day 1, 58 mg/kg i.m. daily day 2-5 after infection (Group 3)
[11] = day 1, 58 mg/kg i.m. daily day 3-5 after infection (Group 4)
[12] = day 2, 58 mg/kg i.m. daily day 2-5 after infection (Group 3)
[13] = day 2, 58 mg/kg i.m. daily day 3-5 after infection (Group 4)
[14] = day 3, 58 mg/kg i.m. daily day 2-5 after infection (Group 3)
[15] = day 3, 58 mg/kg i.m. daily day 3-5 after infection (Group 4)
[16] = day 4, 58 mg/kg i.m. daily day 2-5 after infection (Group 3)
[17] = day 4, 58 mg/kg i.m. daily day 3-5 after infection (Group 4)
[18] = day 5, 58 mg/kg i.m. daily day 2-5 after infection (Group 3)
[19] = day 5, 58 mg/kg i.m. daily day 3-5 after infection (Group 4)

## CC1c2cccc(O)c2C(=O)C2=C(O)C3(O)C(=O)C(C(N)=O)=C(O)C(N(C)C)C3C(O)C21.O (centres unmarked) [Doxycycline, 4-(Dimethylamino)-1,4,4a,5,5a,6,11,12a-octahydro-3,5,10,12,12a-pentahydroxy-6-methyl-1, 11-dioxo-2-naphthacenecarboxamide monohydrate]
[1]
  m.t.d. (mean time to death): 7.6 and 8.54 and 7.69
[2]
  survival: 70%
[2]; 58 mg/kg
  death: 6
[3]
  increase of the ratio of IL-1/IL-1Ra over the base level: about 5 fold
[4]; day 0, before the injection
  I + II: 0.166
  IL-1: 2.95 pg/mL
  IL-1/IL-IRA (I): 0.098
  IL-IRA: 30 pg/mL
  TNF: 1.17 pg/mL
  TNF/sTNFrl (II): 0.068
  sTNFrl: 17 pg/mL
[4]; day 1 after the injection
  I + II: 0.187
  IL-1: 20.62 pg/mL
  IL-1/IL-IRA (I): 0.115
  IL-IRA: 180 pg/mL
  TNF: 4.68 pg/mL
  TNF/sTNFrl (II): 0.072
  sTNFrl: 85 pg/mL
[4]; day 2 after the injection
  I + II: 0.753
  IL-1: 17.43 pg/mL
  IL-1/IL-IRA (I): 0.291
  IL-IRA: 60 pg/mL
  TNF: 17.55 pg/mL
  TNF/sTNFrl (II): 0.462
  sTNFrl: 38 pg/mL
[4]; day 3 after the injection
  I + II: 0.486
  IL-1: 17.48 pg/mL
  IL-1/IL-IRA (I): 0.219
  IL-IRA: 80 pg/mL
  TNF: 9.36 pg/mL
  TNF/sTNFrl (II): 0.267
  sTNFrl: 35 pg/mL
[4]; day 4 after the injection
  I + II: 0.318
  IL-1: 17.93 pg/mL
  IL-1/IL-IRA (I): 0.102
  IL-IRA: 175 pg/mL
  TNF: 8.19 pg/mL
  TNF/sTNFrl (II): 0.216
  sTNFrl: 38 pg/mL
Dengue virus, type 2
  Survival/dead: 0/10
  mice dead on 4 day: 4 mice - on 4 day
  mice dead on 5 day: 5 mice - on 5 day
  mice dead on 6 day: 1 mice - on 6 day
  mice dead on day 6: 10 mice on day 6
Dengue virus, type 2; 58 mg/kg, monohydrate
  Survival/dead: 10/0 and 0/10 and 6/4 and 2/4 and 1/3 and 0/1
[5]; [8]
  I + II: 0.151
  IL-1: 2.95 pg/mL
  IL-1/IL-IRA (I): 0.083
  IL-IRA: 30 pg/mL
  TNF: 1.17 pg/mL
  TNF/sTNF (II): 0.068
  sTNFrl: 17 pg/mL
[5]; [9]
  I + II: 0.151
  IL-1: 2.95 pg/mL
  IL-1/IL-IRA (I): 0.083
  IL-IRA: 30 pg/mL
  TNF: 1.17 pg/mL
  TNF/sTNF (II): 0.068
  sTNFrl: 17 pg/mL
[5]; [10]
  I + II: 0.407
  IL-1: 10.6 pg/mL
  IL-1/IL-IRA (I): 0.151
  IL-IRA: 70 pg/mL
  TNF: 8.19 pg/mL
  TNF/sTNF (II): 0.256
  sTNFrl: 32 pg/mL
[5]; [11]
  I + II: 0.407
  IL-1: 10.6 pg/mL
  IL-1/IL-IRA (I): 0.151
  IL-IRA: 70 pg/mL
  TNF: 8.19 pg/mL
  TNF/sTNF (II): 0.256
  sTNFrl: 32 pg/mL
[5]; [12]
  I + II: 0.985
  IL-1: 16.8 pg/mL
  IL-1/IL-IRA (I): 0.258
  IL-IRA: 65 pg/mL
  TNF: 26.9 pg/mL
  TNF/sTNF (II): 0.727
  sTNFrl: 37 pg/mL
[5]; [13]
  I + II: 0.985
  IL-1: 16.8 pg/mL
  IL-1/IL-IRA (I): 0.258
  IL-IRA: 65 pg/mL
  TNF: 26.9 pg/mL
  TNF/sTNF (II): 0.727
  sTNFrl: 37 pg/mL
[5]; [14]
  I + II: 0.643
  IL-1: 17.9 pg/mL
  IL-1/IL-IRA (I): 0.211
  IL-IRA: 85 pg/mL
  TNF: 19.89 pg/mL
  TNF/sTNF (II): 0.432
  sTNFrl: 46 pg/mL
[5]; [15]
  I + II: 1.161
  IL-1: 26.7 pg/mL
  IL-1/IL-IRA (I): 0.381
  IL-IRA: 70 pg/mL
  TNF: 35.1 pg/mL
  TNF/sTNF (II): 0.780
  sTNFrl: 45 pg/mL
[5]; [16]
  I + II: 0.809
  IL-1: 24.18 pg/mL
  IL-1/IL-IRA (I): 0.318
  IL-IRA: 76 pg/mL
  TNF: 24.57 pg/mL
  TNF/sTNF (II): 0.491
  sTNFrl: 50 pg/mL
[5]; [17]
  I + II: 1.375
  IL-1: 30.42 pg/mL
  IL-1/IL-IRA (I): 0.400
  IL-IRA: 76 pg/mL
  TNF: 46.8 pg/mL
  TNF/sTNF (II): 0.975
  sTNFrl: 48 pg/mL
[5]; [18]
  I + II: 4.14
  IL-1: 30.42 pg/mL
  IL-1/IL-IRA (I): 0.390
  IL-IRA: 78 pg/mL
  TNF: 262.5 pg/mL
  TNF/sTNF (II): 3.75
  sTNFrl: 70 pg/mL
[5]; [19]
  I + II: 5.256
  IL-1: 36.6 pg/mL
  IL-1/IL-IRA (I): 0.435
  IL-IRA: 84 pg/mL
  TNF: 337.5 pg/mL
  TNF/sTNF (II): 4.821
  sTNFrl: 70 pg/mL
[6]
  toxicity to control groups: not toxic
[6]; of 6 guinea pigs
  survival: 6
[7]
  toxicity to control groups: not toxic
[7]; of 20 mice
  death: 0
  survival: 20
